Measurements as given in patent US9931379B2, “Oxyntomodulin analogs and methods of making and using same” (The Research Foundation for The State University of New York, priority 2015, dated 2018).
Starred links: 1 amine or outer side, 2 acyl side, 3 side chain; linkers in the order of their positions; H or OH if unused. Positions of bridges follow the written chain, without caps; N, C: chain ends. Non-standard residues stand in square brackets, D forms with d. Residues, ends and D or L forms follow the SMILES beside them. Biphenyl(4,4'-CH2)2 = c1cc(-c2ccc(C[*:2])cc2)ccc1C[*:1]; X3 = C(=Cc1ccc(C=CC[*:2])cc1)C[*:1]

Experiments:
GCGR = molecular target: T1, GCGR (Homo sapiens, UniProt P47871); test: CRE-driven luciferase reporter assay, HEK293 cells overexpressing GCGR; format: cell-based; settings: for GCGR activation, result in words: comparison
T1 construct: expressed in transfected cells
T1 sequence (P47871 26-477): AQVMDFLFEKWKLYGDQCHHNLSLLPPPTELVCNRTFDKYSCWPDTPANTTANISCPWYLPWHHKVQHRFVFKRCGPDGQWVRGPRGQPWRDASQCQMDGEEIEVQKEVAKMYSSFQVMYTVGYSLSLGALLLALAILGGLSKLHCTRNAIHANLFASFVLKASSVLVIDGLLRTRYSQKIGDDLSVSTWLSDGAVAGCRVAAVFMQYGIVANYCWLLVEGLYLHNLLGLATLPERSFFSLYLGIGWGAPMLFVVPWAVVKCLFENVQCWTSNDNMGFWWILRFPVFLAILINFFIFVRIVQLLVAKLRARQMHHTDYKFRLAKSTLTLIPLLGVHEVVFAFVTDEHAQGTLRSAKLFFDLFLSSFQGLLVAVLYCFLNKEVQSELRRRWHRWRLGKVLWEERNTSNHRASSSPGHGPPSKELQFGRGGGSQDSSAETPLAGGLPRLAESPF
Experimental: (§1) The surviving cells (referred to as CRE-HEK293) were expanded and then transfected with a G418 selective mammalian expression plasmid encoding human GCGR or GLP-1R, followed by geneticin selection (Life technologies, Carlsbad, Calif.). Single-colony stable cell lines expressing both CRE-luciferase and GCGR/GLP-1R were then established for in vitro activity assays.
(§2) HEK293-GCGR-CRE and HEK293-GLP-1R-CRE cells were seeded in a white 384-well plate at a density of 5,000 cells per well and cultured for 24 hours in DMEM with 10% FBS at 37° C. with 5% CO2. Cells were treated with different peptides in a dose dependent manner. After 24 hours, 10 μL of Bright-Glo reagent (Promega, Madison, Wis.) was added to each well and luminescence was determined using an Envision multilabel plate reader (PerkinElmer, Waltham, Mass.). The EC50 of each peptide was calculated using GraphPad Prism 6 software (GraphPad, San Diego, Calif.).

GLP-1R = molecular target: T2, GLP-1R (Homo sapiens, UniProt P43220); test: CRE-driven luciferase reporter assay, HEK293 cells overexpressing GLP-1R; format: cell-based
T2 construct: expressed in transfected cells
T2 sequence (P43220 24-463): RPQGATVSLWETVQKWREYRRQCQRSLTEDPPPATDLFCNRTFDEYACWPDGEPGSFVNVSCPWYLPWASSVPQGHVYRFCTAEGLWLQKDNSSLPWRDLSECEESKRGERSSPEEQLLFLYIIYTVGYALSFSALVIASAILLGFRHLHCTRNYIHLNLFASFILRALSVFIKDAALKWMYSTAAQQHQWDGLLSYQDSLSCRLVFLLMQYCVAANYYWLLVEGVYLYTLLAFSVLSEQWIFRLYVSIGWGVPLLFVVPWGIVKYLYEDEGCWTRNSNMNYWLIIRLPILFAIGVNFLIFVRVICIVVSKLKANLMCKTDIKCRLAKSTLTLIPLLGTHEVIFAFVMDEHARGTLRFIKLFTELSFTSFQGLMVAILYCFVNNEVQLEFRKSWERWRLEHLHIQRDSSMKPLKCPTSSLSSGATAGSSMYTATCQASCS
Experimental: as §1, §2

[1] = compared to its linear counterpart
[2] = compared to its D,L counterpart, peptide 1

CC[C@H](C)[C@H](NC(=O)[C@H](CC(N)=O)NC(=O)[C@H](CC(N)=O)NC(=O)[C@H](CCCNC(=N)N)NC(=O)[C@H](CC(N)=O)NC(=O)[C@H](CCCNC(=N)N)NC(=O)[C@H](CCCCN)NC(=O)[C@@H](NC(=O)[C@H](CC(N)=O)NC(=O)[C@H](CCSC)NC(=O)[C@H](CC(C)C)NC(=O)[C@H](Cc1c[nH]c2ccccc12)NC(=O)[C@@H]1CSCC=Cc2ccc(cc2)C=CCSC[C@H](NC(=O)[C@H](CCC(=O)O)NC(=O)[C@H](CC(=O)O)NC(=O)[C@H](CC(C)C)NC(=O)[C@H](Cc2ccc(O)cc2)NC(=O)[C@H](CCCCN)NC(=O)[C@H](CO)NC(=O)[C@H](Cc2ccc(O)cc2)NC(=O)[C@H](CC(=O)O)NC(=O)[C@H](CO)NC(=O)[C@@H](NC(=O)[C@H](Cc2ccccc2)NC(=O)[C@@H](NC(=O)CNC(=O)[C@H](CCC(N)=O)NC(=O)[C@@H](CO)NC(=O)[C@@H](N)Cc2c[nH]cn2)[C@@H](C)O)[C@@H](C)O)C(=O)N[C@@H](C)C(=O)N[C@@H](C)C(=O)N[C@@H](CCCCN)C(=O)N[C@@H](CCC(=O)O)C(=O)N[C@@H](Cc2ccccc2)C(=O)N[C@@H]([C@@H](C)CC)C(=O)N1)[C@@H](C)O)C(=O)N[C@@H](C)C(N)=O [compound 12] (H-H[dS]QGTFTSDYSKYLDECAAKEFICWLMNTKRNRNNIA-NH2; linker 17-24 via X3)
EC50 (GCGR; Table 2, mean and standard deviation, assay performed three times, read-out: Agonist activity (nM) GCGR): 1 ± 0.12 nM | EC50 (GLP-1R; Table 2, mean and standard deviation, assay performed three times, read-out: Agonist activity (nM) GLP-1R): 0.45 ± 0.03 nM

CC[C@H](C)[C@H](NC(=O)[C@H](CC(N)=O)NC(=O)[C@H](CC(N)=O)NC(=O)[C@H](CCCNC(=N)N)NC(=O)[C@H](CC(N)=O)NC(=O)[C@H](CCCNC(=N)N)NC(=O)[C@H](CCCCN)NC(=O)[C@@H](NC(=O)[C@H](CC(N)=O)NC(=O)[C@H](CCSC)NC(=O)[C@H](CC(C)C)NC(=O)[C@H](Cc1c[nH]c2ccccc12)NC(=O)[C@H](CS)NC(=O)[C@@H](NC(=O)[C@H](Cc1ccccc1)NC(=O)[C@H](CC(=O)O)NC(=O)[C@H](CCC(N)=O)NC(=O)[C@H](C)NC(=O)[C@H](CCCNC(=N)N)NC(=O)[C@@H](CS)NC(=O)[C@H](CO)NC(=O)[C@H](CC(=O)O)NC(=O)[C@H](CC(C)C)NC(=O)[C@H](Cc1ccc(O)cc1)NC(=O)[C@H](CCCCN)NC(=O)[C@H](CO)NC(=O)[C@H](Cc1ccc(O)cc1)NC(=O)[C@H](CC(=O)O)NC(=O)[C@H](CO)NC(=O)[C@@H](NC(=O)[C@H](Cc1ccccc1)NC(=O)[C@@H](NC(=O)CNC(=O)[C@H](CCC(N)=O)NC(=O)[C@@H](CO)NC(=O)[C@@H](N)Cc1c[nH]cn1)[C@@H](C)O)[C@@H](C)O)C(C)C)[C@@H](C)O)C(=O)N[C@@H](C)C(N)=O [peptide 1] (H-H[dS]QGTFTSDYSKYLDS[dC]RAQDFVCWLMNTKRNRNNIA-NH2)
GCGR activation, result in words (GCGR): more potently than peptide 2 | GLP-1R activation, result in words (GLP-1R; comparison): reduced potency

CC[C@H](C)[C@H](NC(=O)[C@H](CC(N)=O)NC(=O)[C@H](CC(N)=O)NC(=O)[C@H](CCCNC(=N)N)NC(=O)[C@H](CC(N)=O)NC(=O)[C@H](CCCNC(=N)N)NC(=O)[C@H](CCCCN)NC(=O)[C@@H](NC(=O)[C@H](CC(N)=O)NC(=O)[C@H](CCSC)NC(=O)[C@H](CC(C)C)NC(=O)[C@H](Cc1c[nH]c2ccccc12)NC(=O)[C@@H]1CSCc2ccc(cc2)-c2ccc(cc2)CSC[C@@H](NC(=O)[C@H](CO)NC(=O)[C@H](CC(=O)O)NC(=O)[C@H](CC(C)C)NC(=O)[C@H](Cc2ccc(O)cc2)NC(=O)[C@H](CCCCN)NC(=O)[C@H](CO)NC(=O)[C@H](Cc2ccc(O)cc2)NC(=O)[C@H](CC(=O)O)NC(=O)[C@H](CO)NC(=O)[C@@H](NC(=O)[C@H](Cc2ccccc2)NC(=O)[C@@H](NC(=O)CNC(=O)[C@H](CCC(N)=O)NC(=O)[C@@H](CO)NC(=O)[C@@H](N)Cc2c[nH]cn2)[C@@H](C)O)[C@@H](C)O)C(=O)N[C@@H](CCCNC(=N)N)C(=O)N[C@@H](C)C(=O)N[C@@H](CCC(N)=O)C(=O)N[C@@H](CC(=O)O)C(=O)N[C@@H](Cc2ccccc2)C(=O)N[C@@H](C(C)C)C(=O)N1)[C@@H](C)O)C(=O)N[C@@H](C)C(N)=O [peptide 3] (H-H[dS]QGTFTSDYSKYLDS[dC]RAQDFVCWLMNTKRNRNNIA-NH2; linker 17-24 via Biphenyl(4,4'-CH2)2)
increase in activity toward GCGR on crosslinking (GCGR; [1]): 16 fold | increase in activity toward GLP-1R on crosslinking (GLP-1R; [1]): 2 fold

CC[C@H](C)[C@H](NC(=O)[C@H](CC(N)=O)NC(=O)[C@H](CC(N)=O)NC(=O)[C@H](CCCNC(=N)N)NC(=O)[C@H](CC(N)=O)NC(=O)[C@H](CCCNC(=N)N)NC(=O)[C@H](CCCCN)NC(=O)[C@@H](NC(=O)[C@H](CC(N)=O)NC(=O)[C@H](CCSC)NC(=O)[C@H](CC(C)C)NC(=O)[C@H](Cc1c[nH]c2ccccc12)NC(=O)[C@H](CS)NC(=O)[C@@H](NC(=O)[C@H](Cc1ccccc1)NC(=O)[C@H](CC(=O)O)NC(=O)[C@H](CCC(N)=O)NC(=O)[C@H](C)NC(=O)[C@H](CCCNC(=N)N)NC(=O)[C@H](CS)NC(=O)[C@H](CO)NC(=O)[C@H](CC(=O)O)NC(=O)[C@H](CC(C)C)NC(=O)[C@H](Cc1ccc(O)cc1)NC(=O)[C@H](CCCCN)NC(=O)[C@H](CO)NC(=O)[C@H](Cc1ccc(O)cc1)NC(=O)[C@H](CC(=O)O)NC(=O)[C@H](CO)NC(=O)[C@@H](NC(=O)[C@H](Cc1ccccc1)NC(=O)[C@@H](NC(=O)CNC(=O)[C@H](CCC(N)=O)NC(=O)[C@@H](CO)NC(=O)[C@@H](N)Cc1c[nH]cn1)[C@@H](C)O)[C@@H](C)O)C(C)C)[C@@H](C)O)C(=O)N[C@@H](C)C(N)=O [peptide 4] (H-H[dS]QGTFTSDYSKYLDSCRAQDFVCWLMNTKRNRNNIA-NH2)
increase in GCGR activity (GCGR; [2]): roughly 2 fold | increase in GLP-1R activity (GLP-1R; [2]): roughly 2 fold

CC[C@H](C)[C@H](NC(=O)[C@H](CC(N)=O)NC(=O)[C@H](CC(N)=O)NC(=O)[C@H](CCCNC(=N)N)NC(=O)[C@H](CC(N)=O)NC(=O)[C@H](CCCNC(=N)N)NC(=O)[C@H](CCCCN)NC(=O)[C@@H](NC(=O)[C@H](CC(N)=O)NC(=O)[C@H](CCSC)NC(=O)[C@H](CC(C)C)NC(=O)[C@H](Cc1c[nH]c2ccccc12)NC(=O)[C@H](CS)NC(=O)[C@@H](NC(=O)[C@H](Cc1ccccc1)NC(=O)[C@H](CC(C)C)NC(=O)[C@H](CCCNC(=N)N)NC(=O)[C@@H](NC(=O)[C@H](C)NC(=O)[C@H](CS)NC(=O)[C@H](CCC(=O)O)NC(=O)[C@H](CC(=O)O)NC(=O)[C@H](CC(C)C)NC(=O)[C@H](Cc1ccc(O)cc1)NC(=O)[C@H](CCCCN)NC(=O)[C@H](CO)NC(=O)[C@H](Cc1ccc(O)cc1)NC(=O)[C@H](CC(=O)O)NC(=O)[C@H](CO)NC(=O)[C@@H](NC(=O)[C@H](Cc1ccccc1)NC(=O)[C@@H](NC(=O)CNC(=O)[C@H](CCC(N)=O)NC(=O)[C@@H](CO)NC(=O)[C@@H](N)Cc1c[nH]cn1)[C@@H](C)O)[C@@H](C)O)C(C)C)[C@@H](C)CC)[C@@H](C)O)C(=O)N[C@@H](C)C(N)=O [peptide 8] (H-H[dS]QGTFTSDYSKYLDECAVRLFICWLMNTKRNRNNIA-NH2)
GCGR activation, result in words (GCGR): less potent
